According to article PMC9697187 (Viruses, 2022):
Read-outs that look alike come from different tables or passages of the source.

How the values were obtained:
[1] = tested on: FIPV serotype I (Black I); experiment: Colorimetric CPE bioassay; format: cell-based, feline infectious peritonitis virus (FIPV); conditions: for EC50: read-out: EC50 against Black I (serotype I FIPV)
[2] = tested on: FIPV serotype II (WSU-79-1146); experiment: Combined anticoronaviral therapy; format: cell-based, feline infectious peritonitis virus (FIPV); conditions: WSU-79-1146, CRFK cells, alone and combined determined concurrently
[3] = tested on: FIPV II; conditions: cited from earlier work
[4] = tested on: feline infectious peritonitis (FIP); conditions: cited from earlier work; for Cats clinically cured of FIP: retrospective study, treated with either GC376 or GS-441524
[5] = tested on: FIPV serotype II (WSU-79-1146); experiment: Colorimetric CPE bioassay; format: cell-based, feline infectious peritonitis virus (FIPV); conditions: for EC50: read-out: EC50 against WSU-79-1146 (serotype II FIPV)
[6] = in vivo; design: species or system cat; conditions: male; for Cmax: Cmax of GS-441524
[7] = design: method as in not printed at the place; conditions: read-out: Cmax of GS-441524; subcutaneously administered at 5 mg/kg, cats; ref not given; cited from earlier work
[8] = Single dose pharmacokinetics of orally administered MPV in SPF cats; format: in vivo, cat
[9] = tested on: CEM/C1 human cell line; conditions: cited from earlier work
[10] = tested on: CRFK cells; conditions: cited from earlier work
[11] = FCWF-4 CU cells, MOI 0.1, 72 h, monotherapy
[12] = clinical trial, naturally occurring FIP
[13] = Alphacoronavirus 1, FCWF-4 CU cells, MOI 0.1, 72 h, monotherapy
[14] = owner survey, unlicensed GS-441524
[15] = Alphacoronavirus 1, read-out: EC50, combination experiment (A) nirmatrelvir and MPV
[16] = male, serum, po, 10 mg/kg, 10 mg/kg oral molnupiravir, mean of 3 cats
[17] = serum MPV, 10 mg/kg oral molnupiravir, mean of 3 cats, 10 mg/kg
[18] = Alphacoronavirus 1, CRFK cells, MOI 0.1, 72 h, monotherapy
[19] = Alphacoronavirus 1, read-out: EC50, combination experiment (C) remdesivir and nirmatrelvir

SMILES: CC(C)C[C@H](NC(=O)OCc1ccccc1)C(=O)N[C@@H](CC1CCNC1=O)C(O)S(=O)(=O)O (stereo partly shown) [GC376]
- EC50 [1, 11]: 10 nM
- EC50 ([2]; read-out: EC50, combination experiment (B) GC376 and remdesivir): 406 nM
- EC50 ([3]; prior study, read-out: EC50 against FIPV II): 900 nM

SMILES: CC(C)C[C@H](NC(=O)OCc1ccccc1)C(=O)N[C@@H](C[C@@H]1CCNC1=O)C(O)S(=O)(=O)[O-].[Na+] (stereo partly shown) [GC376]
- Cats in remission [4, 12]: seven of the 20
- Cats clinically cured of FIP [4]: 29 of 30

SMILES: N#C[C@@]1(c2ccc3c(N)ncnn23)O[C@H](CO)[C@@H](O)[C@H]1O [GS-441524]
- EC50 [1, 13]: 20 nM
- EC50 ([5]; Alphacoronavirus 1, CRFK, 72 h): 610 nM
- concentration at 24 h ([6]; cat, GS-441524 remaining in plasma 24 h post-treatment): 220 to 2000 nM
- AUC(0-t) ([6]; iv, 7 mg/kg, AUC0-24 of GS-441524): 45 µM·h
- Cmax ([6]; iv, 7 mg/kg): 6.9 µM
- AUC(0-t) ([6]; po, 25 mg/kg, AUC (AUC0-24) of GS-441524): 89700 ng·h/mL
- Cmax ([6]; po, 25 mg/kg): 13300 ng/mL
- half-life ([6]; po, 25 mg/kg, T1/2 of GS-441524): 270 min
- Cats healthy and disease free at the time of publication [4, 12]: 25 of 31
- Cats with successful resolution of disease ([4]; neurological FIP, escalating dose): 3 of 4
- Cats with neurological or ocular signs successfully treated ([4]; owner survey responses): 161 of 169
- Cats alive at the time of publication ([4]; owner survey, unlicensed GS-441524, n = 380): 96.7%
- Cats considered cured [4, 14]: 54.0%
- Cats still being monitored in the 12-week observation period [4, 14]: 43.3%
- Cats clinically cured of FIP [4]: 29 of 30
- EC50 ([3]; previously reported, read-out: EC50 against serotype II FIPV): 780 nM
- Cmax [7]: ~10 µM

SMILES: CC(C)C(=O)OC[C@H]1O[C@@H](n2ccc(NO)nc2=O)[C@H](O)[C@@H]1O [MPV, molnupiravir]
- EC50 [1, 13]: 16 nM
- EC50 ([5]; Alphacoronavirus 1, CRFK, 72 h): 700 nM
- EC50 [2, 15]: 693 nM
- Detection of MPV in serum over 24 h ([8]; 10 mg/kg oral MPV): not detected after the 12-h time point
- Peak detection time point in serum, aggregate of three cats ([8]; 10 mg/kg oral MPV, Figure 3B): approximately 1.5 h
- CL/F [8, 16]: 5780 mL/min/kg
- MRT [8, 16]: 4.6 h
- AUC(0-t) ([8]; male, serum, po, 10 mg/kg, 10 mg/kg oral molnupiravir, mean of 3 cats, read-out: AUC0-t of MPV): 0.085 µM·h
- Vd/F ([8]; male, serum, po, 10 mg/kg, 10 mg/kg oral molnupiravir, mean of 3 cats, read-out: Vz/F of MPV): 881 L/kg
- AUC ([8]; male, serum, po, 10 mg/kg, serum MPV, 10 mg/kg oral molnupiravir, individual cat): 39.6 ng·h/mL
- AUC(0-t) ([8]; male, serum, po, 10 mg/kg, serum MPV, 10 mg/kg oral molnupiravir, mean of 3 cats, read-out: AUC (AUC0-t) of MPV): 27.5 ng·h/mL
- AUC (AUC0-t) of MPV [8, 17]: 27.5 ng·h/mL
- Cmax [8, 17]: 40 nM
- Cmax of MPV [8, 17]: 14.2 ng/mL

SMILES: O=c1nc(NO)ccn1[C@@H]1O[C@H](CO)[C@@H](O)[C@H]1O [NHC, β-D-N^4-hydroxycytidine]
- EC50 [1, 11]: 50 nM
- EC50 against Black I expressed as ([1]; equivalent of 0.05 μM): 12.9 ng/mL
- EC50 ([5]; CRFK cells, MOI 0.1, 72 h, monotherapy): 110 nM
- Serum exposure relative to the NHC EC50 ([8]; in vivo): greater than the NHC EC50
- Kel of NHC ([8]; in vivo, po, 10 mg/kg): 0.2 h⁻¹
- CC50 [9]: 7.5 µM
- Cytotoxicity in CRFK cells [10]: cytotoxicity has also been documented

SMILES: CCC(CC)COC(=O)[C@H](C)N[P@](=O)(OC[C@H]1O[C@@](C#N)(c2ccc3c(N)ncnn23)[C@H](O)[C@@H]1O)Oc1ccccc1 [RDV, remdesivir]
- EC50 [1, 13]: 30 nM
- EC50 [5, 18]: 180 nM
- EC50 ([2]; Alphacoronavirus 1, read-out: EC50, combination experiment (B) GC376 and remdesivir): 181 nM
- EC50 [2, 19]: 6420 nM

SMILES: CC(C)(C)[C@H](NC(=O)C(F)(F)F)C(=O)N1C[C@H]2[C@@H]([C@H]1C(=O)N[C@H](C#N)C[C@@H]1CCNC1=O)C2(C)C [nirmatrelvir]
- EC50 ([1]; Alphacoronavirus 1, 72 h): 16 nM
- EC50 [5, 18]: 1310 nM
- Differential efficacy, EC50 for FIPV I relative to FIPV II ([5]; Black I vs WSU-79-1146): ~100 fold
- EC50 [2, 15]: 1310 nM
- EC50 [2, 19]: 2940 nM
